Converted amounts (≈) assume the structure as drawn. Like-named read-outs stand apart in the source and are kept apart here.
Key:
[1] = system: S. pneumoniae ATCC49619; experiment: In vitro antibacterial activity (MIC assay), broth microdilution; type: cell-based; conditions: Streptococcus pneumoniae, ATCC49619; read-out: S. pneumoniae ATCC49619 MIC
Summary of the method: (§1)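 Broth microdilution per NCCLS M7-A5: 11-point 2-fold compound dilutions from DMSO stocks, inoculum about 5×10^5 CFU/mL, incubation 35° C for 16–24 h. MIC scored visually against no-compound growth controls, in μg/mL.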

[2] = system: S. aureus ATCC13709; experiment: as above; type: cell-based; conditions: Staphylococcus aureus, ATCC13709; read-out: S. aureus ATCC13709 MIC
Summary of the method: as §1

[3] = system: E. coli KL-16 (GSC strain 4245); experiment: as above; type: cell-based; conditions: Escherichia coli
Summary of the method: as §1

[4] = target: T1, E. coli DNA gyrase (Escherichia coli, UniProt P0AES4+P0AES6); experiment: DNA gyrase inhibition assay (supercoiling); type: biochemical; conditions: E. coli DNA gyrase supercoiling, visual inspection of gels; read-out: DNA Gyrase IC50 (converted)
T1 construct: purchased John Innes Enterprises Ltd. (John Innes Centre, UK)
Summary of the method: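 Relaxed pBR322 (250 ng) was supercoiled by 0.2 unit gyrase in Tris-HCl pH 7.5, KCl, MgCl2, DTT, spermidine, 1 mM ATP, glycerol, albumin, 0.5% DMSO final, 30 min at 37° C. Products were resolved on 1.0% agarose gels with ethidium bromide staining.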

[5] = system: CipR MRSA OC5273; experiment: Resistant strains assay (broth microdilution MIC); type: cell-based; conditions: Staphylococcus aureus, read-out: MIC, Column H
Excerpt: (§2) Testing protocols followed NCCLS methodology for broth microdilution assays.

[6] = system: CipR MRSA OC4222; experiment: Resistant strains assay (broth microdilution MIC); type: cell-based; conditions: Staphylococcus aureus; CipR MRSA OC4222; read-out: MIC, Column G
Excerpt: as §2

[7] = system: MRSA OC2878; experiment: Resistant strains assay (broth microdilution MIC); type: cell-based; conditions: Staphylococcus aureus; MRSA OC2878; read-out: MIC, Column D
Excerpt: as §2

[8] = system: MRSA OC3726 (COL); experiment: Resistant strains assay (broth microdilution MIC); type: cell-based; conditions: Staphylococcus aureus; MRSA OC3726 (COL); read-out: MIC, Column C
Excerpt: as §2

[9] = system: CipR MRSA OC4159; experiment: Resistant strains assay (broth microdilution MIC); type: cell-based; conditions: Staphylococcus aureus, read-out: MIC, Column F
Excerpt: as §2

[10] = system: MSSA ATCC13709 (Smith); experiment: Resistant strains assay (broth microdilution MIC); type: cell-based; conditions: Staphylococcus aureus
Description: (§3) Compounds of the present invention were tested for activity against susceptible and resistant bacterial strains in vitro, and activity was compared to known anti-bacterial agents. Testing protocols followed NCCLS methodology for broth microdilution assays. MIC values in μg/mL are presented in Table 3 for the following strains: Column A: MSSA ATCC13709 (Smith); Column B: MSSA ATCC 29213; Column C: MRSA OC3726 (COL); Column D: MRSA OC2878.

[11] = system: MSSA ATCC 29213; experiment: Resistant strains assay (broth microdilution MIC); type: cell-based; conditions: Staphylococcus aureus, read-out: MIC, Column B
Description: as §3

[12] = system: CipR MRSA OC3946; experiment: Resistant strains assay (broth microdilution MIC); type: cell-based; conditions: Staphylococcus aureus, read-out: MIC, Column E
Description: as §3
MIC values in μg/mL are presented in Table 4 for the following strains: Column E: CipR MRSA OC3946; Column F: CipR MRSA OC4159; Column G: CipR MRSA OC4222; Column H: CipR MRSA OC5273.

[13] = target: T2, E. coli topoisomerase IV (Escherichia coli, UniProt P0AFI2+P20083); experiment: Topoisomerase IV inhibition assay (relaxation); type: biochemical; conditions: E. coli topoisomerase IV relaxation, visual inspection of gels; read-out: Topoisomerase IV IC50 (converted)
T2 construct: purchased John Innes Enterprises Ltd. (John Innes Centre, UK)
Description: Inhibition of the relaxation activity of E. coli topoisomerase IV was determined using enzyme, buffers and substrates received from John Innes Enterprises Ltd. (John Innes Centre, UK). The reactions were performed according to the manufacturer's directions, with the following modifications.
DNA relaxation reactions were carried out in a total reaction volume of 20 μL, containing 300 ng of supercoiled pBR322, 40 mM HEPES-KOH (pH 7.6), 100 mM potassium glutamate, 10 mM Mg(OAc)2, 10 mM DTT, 4 μg/mL tRNA, 2 mM ATP, and 50 μg/mL BSA. Compounds, diluted in 10% DMSO, were added to the reaction mixture to reach a final concentration of 0.5% DMSO. Enzyme was diluted to 0.45 unit/μL in a solution of 40 mM HEPES-KOH (pH 7.6), 150 mM potassium glutamate, 1 mM DTT, 1 mM EDTA, and 40% glycerol. Diluted enzyme (0.9 unit) was added to each reaction.
The reactions were incubated at 37° C. for 45 min. The reactions were then cooled to 0° C. followed by addition of 3 μL of 40% glycerol, 100 mM Tris-HCl (pH 7.5), 50 mM EDTA, 0.5% SDS and 0.1% bromophenol blue. Samples were separated on 1.0% agarose gels. Gels were stained with Ethidium bromide and photographed with a Stratagene Eagle Eye II.

T2 sequence (P0AFI2 whole entry): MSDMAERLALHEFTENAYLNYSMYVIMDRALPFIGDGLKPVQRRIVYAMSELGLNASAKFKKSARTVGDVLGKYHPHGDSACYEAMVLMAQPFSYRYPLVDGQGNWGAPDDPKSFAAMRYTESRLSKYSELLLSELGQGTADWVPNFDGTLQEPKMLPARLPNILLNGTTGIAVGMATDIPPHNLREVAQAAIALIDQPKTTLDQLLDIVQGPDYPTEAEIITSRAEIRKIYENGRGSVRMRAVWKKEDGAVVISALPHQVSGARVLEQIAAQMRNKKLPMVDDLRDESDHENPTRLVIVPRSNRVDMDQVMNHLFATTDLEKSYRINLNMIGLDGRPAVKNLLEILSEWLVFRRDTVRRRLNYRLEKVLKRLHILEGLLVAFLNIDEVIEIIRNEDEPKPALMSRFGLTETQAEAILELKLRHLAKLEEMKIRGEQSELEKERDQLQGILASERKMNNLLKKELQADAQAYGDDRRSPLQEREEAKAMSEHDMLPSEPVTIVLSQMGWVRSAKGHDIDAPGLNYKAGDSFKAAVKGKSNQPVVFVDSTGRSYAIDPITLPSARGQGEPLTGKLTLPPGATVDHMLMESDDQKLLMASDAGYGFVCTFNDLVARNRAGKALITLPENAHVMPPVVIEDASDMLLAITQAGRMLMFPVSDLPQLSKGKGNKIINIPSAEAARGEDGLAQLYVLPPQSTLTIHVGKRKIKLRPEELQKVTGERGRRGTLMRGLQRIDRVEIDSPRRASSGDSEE
T2 sequence (P20083 whole entry): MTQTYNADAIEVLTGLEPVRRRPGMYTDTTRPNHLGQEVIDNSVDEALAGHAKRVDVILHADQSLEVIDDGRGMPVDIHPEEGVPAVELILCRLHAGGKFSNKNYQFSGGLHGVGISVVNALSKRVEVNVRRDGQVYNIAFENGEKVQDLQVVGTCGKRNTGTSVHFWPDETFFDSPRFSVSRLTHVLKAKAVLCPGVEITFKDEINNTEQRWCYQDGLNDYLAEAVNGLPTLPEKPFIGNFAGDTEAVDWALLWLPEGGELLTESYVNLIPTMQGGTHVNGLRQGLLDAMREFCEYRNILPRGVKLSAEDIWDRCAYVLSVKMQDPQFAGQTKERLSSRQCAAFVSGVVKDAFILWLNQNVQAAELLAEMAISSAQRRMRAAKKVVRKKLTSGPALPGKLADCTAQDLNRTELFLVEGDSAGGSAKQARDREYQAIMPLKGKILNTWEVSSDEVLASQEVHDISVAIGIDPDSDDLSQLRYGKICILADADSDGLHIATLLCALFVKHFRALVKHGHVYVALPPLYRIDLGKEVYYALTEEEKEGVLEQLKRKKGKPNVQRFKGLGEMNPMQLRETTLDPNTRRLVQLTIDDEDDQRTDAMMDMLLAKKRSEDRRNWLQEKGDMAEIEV
T1 sequence (P0AES4 whole entry, one chain of several): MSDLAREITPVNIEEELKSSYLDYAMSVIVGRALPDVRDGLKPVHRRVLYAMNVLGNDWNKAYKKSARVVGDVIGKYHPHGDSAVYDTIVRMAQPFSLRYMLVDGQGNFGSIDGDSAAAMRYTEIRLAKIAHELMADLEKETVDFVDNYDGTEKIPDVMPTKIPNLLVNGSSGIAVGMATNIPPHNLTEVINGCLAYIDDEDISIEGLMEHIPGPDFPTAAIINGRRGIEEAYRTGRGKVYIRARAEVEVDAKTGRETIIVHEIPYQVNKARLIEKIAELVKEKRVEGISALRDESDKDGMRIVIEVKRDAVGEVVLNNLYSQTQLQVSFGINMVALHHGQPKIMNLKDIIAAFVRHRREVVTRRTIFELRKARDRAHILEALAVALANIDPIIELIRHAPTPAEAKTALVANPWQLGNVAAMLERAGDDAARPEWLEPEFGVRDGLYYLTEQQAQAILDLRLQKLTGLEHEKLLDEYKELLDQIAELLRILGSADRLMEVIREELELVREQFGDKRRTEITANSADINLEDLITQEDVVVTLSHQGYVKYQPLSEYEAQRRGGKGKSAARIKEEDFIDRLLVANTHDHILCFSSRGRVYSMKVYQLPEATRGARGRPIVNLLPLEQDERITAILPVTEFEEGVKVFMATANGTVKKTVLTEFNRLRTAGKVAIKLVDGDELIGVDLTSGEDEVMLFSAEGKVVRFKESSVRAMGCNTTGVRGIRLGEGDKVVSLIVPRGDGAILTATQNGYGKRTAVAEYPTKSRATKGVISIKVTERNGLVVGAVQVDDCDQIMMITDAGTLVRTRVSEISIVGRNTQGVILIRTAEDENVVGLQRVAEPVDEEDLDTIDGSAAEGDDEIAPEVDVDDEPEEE

Structure (SMILES)	MIC [1] [µg/mL]	MIC [2] [µg/mL]	MIC [3] [µg/mL]	IC50 [4] [nM]	MIC [5] [µg/mL]	MIC [6] [µg/mL]	MIC [7] [µg/mL]	MIC [8] [µg/mL]	MIC [9] [µg/mL]	MIC [10] [µg/mL]	MIC [11] [µg/mL]	MIC ([12]; CipR MRSA OC3946) [µg/mL]	IC50 [13] [nM]	MIC ([12]; MRSA) [µg/mL]
COc1ccc2nccc(-n3cc4c(n3)CCC(NCc3ccc5c(c3)NC(=O)CS5)C4)c2n1 (centres unmarked) [Example 41, 6-{[2-(6-Methoxy-[1,5]naphthyridin-4-yl)-4,5,6,7-tetrahydro-2H-indazol-5-ylamino]-methyl}-4H-benzo[1,4]thiazin-3-one]	2 (≈ 4.23 µM)	0.25 (≈ 0.529 µM)	2 (≈ 4.23 µM)	127	0.5 (≈ 1.06 µM)	0.25 (≈ 0.529 µM)	0.5 (≈ 1.06 µM)	1 (≈ 2.12 µM)	0.25 (≈ 0.529 µM)	0.25 (≈ 0.529 µM)	0.25 (≈ 0.529 µM)	0.25 (≈ 0.529 µM)	33.9	
COc1ccc2nccc(-n3cc4c(n3)CCC(NC/C=C/c3ccccc3)C4)c2n1 (centres unmarked) [Example 46, [2-(6-Methoxy-[1,5]naphthyridin-4-yl)-4,5,6,7-tetrahydro-2H-indazol-5-yl]-(3-phenyl-allyl)-amine]	< 0.125	0.06 (≈ 0.146 µM)	16 (≈ 38.9 µM)	292	0.125 (≈ 0.304 µM)	0.062 (≈ 0.151 µM)	0.125 (≈ 0.304 µM)	0.25 (≈ 0.608 µM)	0.062 (≈ 0.151 µM)	0.062 (≈ 0.151 µM)	8 (≈ 19.4 µM)	0.062 (≈ 0.151 µM)	< 36.5	
COc1ccc2nccc(-n3cc4c(n3)CCC(NC(=O)c3cc5c(cc3F)SCC(=O)N5)C4)c2c1 (centres unmarked) [Example 18, 7-Fluoro-3-oxo-3,4-dihydro-2H-benzo[1,4]thiazine-6-carboxylic acid [2-(6-methoxy-quinolin-4-yl)-4,5,6,7-tetrahydro-2H-indazol-5-yl]-amide]	1 (≈ 1.99 µM)	0.03 (≈ 0.0596 µM)	4 (≈ 7.94 µM)		0.062 (≈ 0.123 µM)	0.031 (≈ 0.0616 µM)	0.062 (≈ 0.123 µM)	0.062 (≈ 0.123 µM)	0.031 (≈ 0.0616 µM)	0.031 (≈ 0.0616 µM)	0.25 (≈ 0.496 µM)	0.015 (≈ 0.0298 µM)	496	
COc1ccc2nccc(-n3cc4c(n3)CCC(NC/C=C/c3ccccc3)C4)c2c1 (centres unmarked) [Example 55, [2-(6-Methoxy-quinolin-4-yl)-4,5,6,7-tetrahydro-2H-indazol-5-yl]-(3-phenyl-allyl)-amine]	1 (≈ 2.44 µM)	0.5 (≈ 1.22 µM)	64 (≈ 156 µM)		1 (≈ 2.44 µM)	0.25 (≈ 0.609 µM)	0.5 (≈ 1.22 µM)	1 (≈ 2.44 µM)	0.5 (≈ 1.22 µM)	0.5 (≈ 1.22 µM)	2 (≈ 4.87 µM)	0.5 (≈ 1.22 µM)		
O=C1CSc2ccc(C(=O)NC3CCc4nn(-c5cccc6cccnc56)cc4C3)cc2N1 (centres unmarked) [Example 31, 3-Oxo-3,4-dihydro-2H-benzo[1,4]thiazine-6-carboxylic acid (2-quinolin-8-yl-4,5,6,7-tetrahydro-2H-indazol-5-yl)-amide]	4 (≈ 8.78 µM)	0.25 (≈ 0.549 µM)	16 (≈ 35.1 µM)	4390	0.5 (≈ 1.1 µM)	4 (≈ 8.78 µM)	0.25 (≈ 0.549 µM)	0.5 (≈ 1.1 µM)	4 (≈ 8.78 µM)	0.25 (≈ 0.549 µM)	16 (≈ 35.1 µM)		274	0.125 (≈ 0.274 µM)

— US8242275B2, “Bicyclic pyrazole compounds as antibacterial agents” (Janssen Pharmaceutica NV, priority 2005, dated 2012)
